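Grown in 96-well plates, cells were treated for 48 hours with each compound at five concentrations. Insufficient inhibition: endpoint recorded as highest concentration tested. Abbreviation: GI50, concentration required for 50% inhibition of growth. At the TGI there is no net growth.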
Key:
Assay in all cases: DTP human tumour cell line panel, 48 h
[1] = tested on: HL-60(TB) leukemia
[2] = tested on: K-562 leukemia
[3] = tested on: SK-OV-3 ovarian
[4] = tested on: CAKI-1 renal
[5] = tested on: RPMI-8226 leukemia
[6] = tested on: NCI/ADR-RES ovarian
[7] = tested on: MDA-MB-231 breast
[8] = tested on: SNB-75 CNS
[9] = tested on: ACHN renal
[10] = tested on: UO-31 renal
[11] = tested on: CCRF-CEM leukemia
[12] = tested on: SK-MEL-5 melanoma
[13] = tested on: UACC-62 melanoma
[14] = tested on: UACC-257 melanoma
[15] = tested on: T-47D breast
[16] = tested on: LOX IMVI melanoma
[17] = tested on: PC-3 prostate
[18] = tested on: SF-268 CNS
[19] = tested on: COLO 205 colon
[20] = tested on: HOP-92 NSCLC
[21] = tested on: HCT-15 colon
[22] = tested on: KM12 colon
[23] = tested on: HCT-116 colon
[24] = tested on: NCI-H460 lung
[25] = tested on: OVCAR-4 ovarian
[26] = tested on: HS 578T breast
[27] = tested on: MDA-MB-435
[28] = tested on: SN12C renal

## COc1ccc(-c2nc(-c3nc4cc(Cl)c(F)cc4[nH]3)c3ccccn23)cc1
[1]
  GI50: 4.97 µM
  TGI: > 100 µM
[2]
  GI50: 4.84 µM
  TGI: > 100 µM
[3]
  GI50: > 100 µM
  TGI: > 100 µM
[4]
  GI50: 5.35 µM
  TGI: > 100 µM
[5]
  GI50: 3.02 µM
  TGI: > 100 µM
[6]
  GI50: 5.5 µM
  TGI: > 100 µM
[7]
  GI50: 5.82 µM
  TGI: > 100 µM
[8]
  GI50: 5.31 µM
  TGI: > 100 µM
[9]
  GI50: 7.34 µM
  TGI: > 100 µM
[10]
  GI50: 2.62 µM
  TGI: 35.7 µM
[11]
  GI50: 3.91 µM
  TGI: > 100 µM
[12]
  GI50: 2.22 µM
  TGI: 6.79 µM
[13]
  GI50: 6.05 µM
  TGI: > 100 µM
[14]
  GI50: 3.15 µM
  TGI: 13.2 µM
[15]
  GI50: 3.54 µM
  TGI: 33.1 µM
[16]
  GI50: 5.36 µM
  TGI: > 100 µM
[17]
  GI50: 4.58 µM
  TGI: > 100 µM
[18]
  GI50: 9.11 µM
  TGI: > 100 µM
[19]
  GI50: 7.1 µM
  TGI: > 100 µM
[20]
  GI50: 3.24 µM
  TGI: > 100 µM
[21]
  GI50: 5.72 µM
  TGI: > 100 µM
[22]
  GI50: 4.56 µM
  TGI: > 100 µM
[23]
  GI50: 6.09 µM
  TGI: > 100 µM
[24]
  GI50: 5.43 µM
  TGI: > 100 µM
[25]
  GI50: 7.93 µM
  TGI: > 100 µM
[26]
  GI50: 12.2 µM
  TGI: > 100 µM
[27]
  GI50: 3.8 µM
  TGI: > 100 µM
[28]
  GI50: 11.2 µM
  TGI: > 100 µM

Reference: PubChem BioAssay (NCI)
